From patent publication US20070049625A1, “EP2 receptor agonists for treating glaucoma” (Allergan, Inc., priority 2005, published 2007)

Legend:
Type in all cases: in vivo
[1] = test system: Beagle dogs; assay: Intraocular pressure in conscious dogs by applanation pneumatonometry; conditions: topical to one eye, single daily dose over a 5 day period; IOP before and 2, 4, 6 hours after dosing; vehicle in other eye
Method: (§1) Measurement of intraocular pressure studies in dogs involved applanation pneumatonometry performed in Beagle dogs of both sexes. The animals remained conscious throughout the study and were gently restrained by hand. The drug was administered topically to one eye using a dropper bottle to deliver approximately a 35 μl volume, the other eye received vehicle (1% polysorbate 80 in 5 mM Tris HCI) as a control. Proparacaine at 0.25% was used for corneal anesthesia during tonometry. Intraocular pressure was determined just before drug administration and at 2, 4, 6 hours thereafter on each day of the 5 day study. Measurement of ocular surface hyperemia was performed immediately before each of the intraocular pressure readings. Ocular surface hyperemia grading was semi-quantitative and assessed according to a 5 point scoring scale used for clinical evaluations: 0=none; 0.5=trace; 1=mild; 2=moderate; and 3=severe.

[2] = test system: Cynomolgus monkeys (Macaca fascicularis); assay: Intraocular pressure in laser-induced ocular hypertensive monkeys; conditions: single topical dose, laser-treated ocular hypertensive eye, IOP at 2, 4, 6 and 24 hours
Method: Cynomolgus monkeys (Macaca fascicularis) were used for the intraocular pressure studies. Each animal was unilaterally laser-treated by circumferential laser photocoagulation to induce ocular hypertension in one eye. Conscious female animals were trained sit in custom design chairs and to accept applanation pneumatonometry. The drug was administered topically to one eye using a dropper bottle to deliver approximately a 35 μl volume, the other eye received vehicle (1% polysorbate 80 in 5 mM Tris HCl) as a control. Proparacaine at 0.25% was used for corneal anesthesia during tonometry. Intraocular pressure was determined just before drug administration and at 2, 4, 6, and 24 hours.

[3] = test system: Beagle dogs; assay: Ocular surface hyperemia grading in dogs; conditions: topical to one eye, dosing over a 5 day period; 5 point scale 0=none, 0.5=trace, 1=mild, 2=moderate, 3=severe
Method: as §1

Row | Compound | effect on the IOP of dogs [1] | effect on the IOP of monkeys ([2]; 0.01% w/v solution) | effect on the IOP of monkeys ([2]; 0.03% w/v solution) | effect on the IOP of monkeys ([2]; 0.1% w/v solution) | ocular surface hyperemia of dogs [3]
1 | CC(C)(C)c1ccc(CN(Cc2cccc(OCC(=O)O)c2)S(=O)(=O)c2cccnc2)cc1 [(3-{[(4-tert-butyl-benzyl)-(pyridine-3-sulfonyl)-amino]-methyl}-phenoxy)-acetic acid] | effective for reducing IOP of the dogs | lowers the elevated IOP over 24 hours | lowers the elevated IOP over 24 hours, almost to the level of the control normotensive eye | lowers the elevated IOP over 24 hours, almost to the level of the control normotensive eye | mild ocular surface hyperemia that diminishes over time
2 | CC(C)OC(=O)COc1cccc(CN(Cc2ccc(C(C)(C)C)cc2)S(=O)(=O)c2cccnc2)c1 [(3-{[(4-tert-butyl-benzyl)-(pyridine-3-sulfonyl)-amino]-methyl}-phenoxy)-acetic acid; isopropyl ester] | effective for reducing IOP of the dogs | – | – | lowers the elevated IOP over 24 hours almost to the level of the control normotensive eye | minimal ocular surface hyperemia
